In patent US10160726B2, “Quinolone derivatives as antibacterials” (priority 2014, dated 2018) one finds IC50 and MIC data, which are given here for eight compounds.

Molecules are shown by their SMILES. In brackets after ≈: the same amount, converted by molar mass. Counter-ions that a name gives are not always drawn.

For orientation: IC50 means the point on the concentration scale where inhibition reaches its midpoint.

Assay [1] concerns the target E. coli DNA gyrase (GyrA-B) (Escherichia coli, UniProt P0AES4). The experiment in a line: Supercoiling assay of E. coli gyrase. It is filed as biochemical. The conditions noted are these: supercoiling activity of E. coli gyrase (GyrA-B); read-out: GyrA-B IC50 (Enzyme). Here is the method: Method 1: Supercoiling Assay of E. Coli Gyrase
Enzymatic activity of E. coli DNA gyrase reconstituted from its purified subunits was assessed by monitoring the introduction of supercoils into the relaxed plasmid pHOT-1 (TopoGEN, TG2035-3). To form the functional gyrase A2B2 heterotetrameric enzyme, equal molar concentrations of the GyrA and GyrB subunits were combined at high protein concentration (500 nM) and incubated on ice for 1 hour prior to assay start in reaction buffer without ATP or the pHOT-1 plasmid. The reaction mixture (25 μl) contained 10 nM enzyme, 10 ng/μl pHOT-1, 1 mM ATP, 35 mM Tris-HCl pH 7.5, 24 mM KCl, 4 mM MgCl2, 2 mM DTT, 1.8 mM spermidine, 6.5% glycerol, and 100 μg/ml bovine serum albumin. The reaction was carried out at 37° C. for 90 minutes and terminated by the addition of 2.5 μl of 10× stop solution (0.9% SDS, 50% glycerol, 0.05% bromophenol blue). […] Gels were stained with ethidium bromide (0.5 μg/ml) for 30 minutes and destained in water for 20 minutes. All gels were analyzed using the BIO-RAD ChemiDocTm XRS+ with Image Lab 3.0 software. The 50% inhibition concentration (IC50) was determined as being the compound concentration at which the supercoiled band was reduced by 50% from the DMSO drug free control (Microsoft Excel 2010 IDBS XLfit, GraftPad Prism 6).

Assay [2] deals with E. coli ATCC 25922 (NB27001). As to the kind of experiment: MIC, broth microdilution (CLSI). The assay is classed as cell-based. The conditions noted are these: Escherichia coli, ATCC25922; E. coli ATCC 25922; 35° C., 20 hours; read-out: Antibacterial activity (MIC) NB27001. In general terms: Broth dilution looks for growth in wells or tubes with falling amounts of substance.
Assay [3] has as its system E. coli NB27177 (efflux deficient CGSC 11430, ΔtolC732::kan). The experiment in a line: microbe, parasite or virus in culture. It is filed as cell-based. The conditions noted are these: Escherichia coli, 20 h, read-out: Antibacterial activity (MIC) NB27177.
The test system of assay [4] is P. aeruginosa NB52019 (wild-type PAO1). As to the kind of experiment: MIC, broth microdilution (CLSI). The assay is classed as cell-based. The conditions noted are these: Pseudomonas aeruginosa, PAO1, 20 h; read-out: Antibacterial activity (MIC) NB52019.
Assay [5] has as its system P. aeruginosa NB52023 (efflux deficient K1542, ΔmexX ΔmexB). The experiment in a line: microbe, parasite or virus in culture. The settings on record: Pseudomonas aeruginosa, 20 h, read-out: Antibacterial activity (MIC) NB52023. It is filed as cell-based.
In assay [6] the test system is P. aeruginosa NB52023-CDK0006 (gyrA T83I, parC S87L). As to the kind of experiment: microbe, parasite or virus in culture. It is filed as cell-based. The settings on record: Pseudomonas aeruginosa, 20 h, read-out: Antibacterial activity (MIC) NB52023-CDK0006.
Assay [7] concerns S. aureus ATCC 29213 (NB01001). As to the kind of experiment: MIC, broth microdilution (CLSI). It is filed as cell-based. The settings on record: Staphylococcus aureus, ATCC29213; S. aureus ATCC 29213; 35° C., 20 hours; read-out: Antibacterial activity (MIC) NB01001.
The test system of assay [8] is S. aureus NB01006-AVR005 (gyrA S84L, grlA S80F, grlB E471K). As to the kind of experiment: microbe, parasite or virus in culture. The assay is classed as cell-based. The settings on record: Staphylococcus aureus, 20 h, read-out: Antibacterial activity (MIC) NB01006-AVR005.

E. coli DNA gyrase (GyrA-B), sequence (P0AES4 whole entry): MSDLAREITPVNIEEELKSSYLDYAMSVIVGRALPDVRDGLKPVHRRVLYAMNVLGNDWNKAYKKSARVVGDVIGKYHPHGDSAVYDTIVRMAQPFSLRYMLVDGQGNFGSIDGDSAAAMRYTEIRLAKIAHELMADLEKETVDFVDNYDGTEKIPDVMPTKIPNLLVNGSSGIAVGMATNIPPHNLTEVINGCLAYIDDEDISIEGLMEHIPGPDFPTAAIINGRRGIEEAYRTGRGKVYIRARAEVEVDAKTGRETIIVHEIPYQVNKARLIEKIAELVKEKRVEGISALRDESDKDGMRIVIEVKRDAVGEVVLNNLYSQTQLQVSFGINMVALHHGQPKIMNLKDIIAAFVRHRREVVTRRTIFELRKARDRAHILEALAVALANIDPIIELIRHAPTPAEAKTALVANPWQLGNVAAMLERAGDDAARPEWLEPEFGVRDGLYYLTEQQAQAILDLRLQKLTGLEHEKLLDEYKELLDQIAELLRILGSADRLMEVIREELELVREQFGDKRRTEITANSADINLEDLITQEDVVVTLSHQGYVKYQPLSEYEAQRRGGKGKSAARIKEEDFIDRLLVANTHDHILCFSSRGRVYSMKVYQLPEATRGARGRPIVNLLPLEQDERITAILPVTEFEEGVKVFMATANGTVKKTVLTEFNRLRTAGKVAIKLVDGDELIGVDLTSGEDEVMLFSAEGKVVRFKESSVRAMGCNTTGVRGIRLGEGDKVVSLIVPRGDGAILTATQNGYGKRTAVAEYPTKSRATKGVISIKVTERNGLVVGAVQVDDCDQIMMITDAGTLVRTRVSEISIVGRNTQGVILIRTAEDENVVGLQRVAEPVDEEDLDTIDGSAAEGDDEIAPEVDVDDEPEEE

As for `Cc1c(-c2ccc(N)nc2)c(F)cc2cc(O)c(=O)n(C3CC3)c12` [Example 11.2, 7-(6-aminopyridin-3-yl)-1-cyclopropyl-6-fluoro-3-hydroxy-8-methylquinolin-2(1H)-one], the IC50 in assay [1] was 8.07 µM. Also, the MIC in assay [2] was 8 µg/mL (≈ 24.6 µM); in assay [3], 0.125 µg/mL (≈ 0.384 µM); in assay [4] it was greater than 32 µg/mL; in assay [5], 16 µg/mL (≈ 49.2 µM); in assay [6], greater than 32 µg/mL; in assay [7], 1 µg/mL (≈ 3.07 µM). Further, the MIC in assay [8] came out at 2 µg/mL (≈ 6.15 µM).

As to `Cc1c(N2CC[C@@H]([C@H](C)N)C2)c(F)cc2cc(C(=O)O)c(=O)n(C3CC3)c12.Cl` [Example 1.1, 7-((R)-3-((S)-1-aminoethyl)pyrrolidin-1-yl)-1-cyclopropyl-6-fluoro-8-methyl-2-oxo-1,2-dihydroquinoline-3-carboxylic acid hydrochloride salt], the half-maximal inhibitory concentration (IC50) in assay [1] turned out to be 0.68 µM. In addition, in assay [8], the MIC was 2 µg/mL.

Take `COc1c(N2CC[C@@H]([C@H](C)N)C2)c(F)cc2cc(C(=O)O)c(=O)n(C3CC3)c12` [Example 12, 7-((R)-3-((S)-1-aminoethyl)pyrrolidin-1-yl)-1-cyclopropyl-6-fluoro-8-methoxy-2-oxo-1,2-dihydroquinoline-3-carboxylic acid hydrochloride]: the IC50 in assay [1] is 4.64 µM.

As to `Cc1c(N2CC[C@@H]([C@H](C)N)C2)c(F)cc2c(OCc3n[nH]c(=O)o3)cc(=O)n(C3CC3)c12` [Example 64, 5-(((7-((R)-3-((S)-1-aminoethyl)pyrrolidin-1-yl)-1-cyclopropyl-6-fluoro-8-methyl-2-oxo-1,2-dihydroquinolin-4-yl)oxy)methyl)-1,3,4-oxadiazol-2(3H)-one], the half-inhibitory concentration (IC50) in assay [1] was 3.2 µM. The MIC in assay [2] was 32 µg/mL (≈ 72.2 µM); in assay [3], 4 µg/mL (≈ 9.02 µM); in assay [4], greater than 32 µg/mL; in assay [5] it was greater than 32 µg/mL; in assay [6], greater than 32 µg/mL; in assay [7], 8 µg/mL (≈ 18 µM). Besides, in assay [8], the MIC is 4 µg/mL (≈ 9.02 µM).

Take `Cc1c(N2CC[C@@H]([C@H](C)N)C2)c(F)cc2c(-c3nnn[nH]3)cc(=O)n(C3CC3)c12` [Example 39, 7-((R)-3-((S)-1-aminoethyl)pyrrolidin-1-yl)-1-cyclopropyl-6-fluoro-8-methyl-4-(1H-tetrazol-5-yl)quinolin-2(1H)-one]: the IC50 in assay [1] came to 9.8 µM. Also, the MIC in assay [2] was 32 µg/mL (≈ 80.5 µM); in assay [3], 32 µg/mL (≈ 80.5 µM); in assay [4] it was 32 µg/mL (≈ 80.5 µM); in assay [5], greater than 32 µg/mL; in assay [6] it was greater than 32 µg/mL; in assay [7], 32 µg/mL (≈ 80.5 µM). Also, in assay [8], the MIC was greater than 32 µg/mL.

Take `Cc1c(N2CC[C@@H]([C@H](C)N)C2)c(F)cc2c(C(=O)O)cc(=O)n(C3CC3)c12` [Example 33, 7-((R)-3-((S)-1-aminoethyl)pyrrolidin-1-yl)-1-cyclopropyl-6-fluoro-8-methyl-2-oxo-1,2-dihydroquinoline-4-carboxylic acid]: in assay [1], the IC50 worked out at 16.3 µM. Further, the MIC was 32 µg/mL (≈ 85.7 µM) in assay [2]; 16 µg/mL (≈ 42.8 µM) in assay [3]; 32 µg/mL (≈ 85.7 µM) in assay [4]; greater than 32 µg/mL in assay [5]; greater than 32 µg/mL in assay [6]; 32 µg/mL (≈ 85.7 µM) in assay [7]. Moreover, in assay [8], the MIC is greater than 32 µg/mL.

In the case of `Cc1c(N2CCC(C3(N)CC3)C2)c(F)cc2ccc(=O)n(C3CC3)c12` (centres unmarked) [Example 9.2, 7-(3-(1-Aminocyclopropyl)pyrrolidin-1-yl)-1-cyclopropyl-6-fluoro-8-methylquinolin-2(1H)-one], the half-inhibitory concentration (IC50) in assay [1] was 1.19 µM. The MIC in assay [2] is 4 µg/mL (≈ 11.7 µM); in assay [3] it was 0.06 µg/mL (≈ 0.176 µM); in assay [4], greater than 32 µg/mL; in assay [5], 16 µg/mL (≈ 46.9 µM); in assay [6], 32 µg/mL (≈ 93.7 µM); in assay [7] it was 0.125 µg/mL (≈ 0.366 µM). Also, the MIC in assay [8] worked out at 0.125 µg/mL (≈ 0.366 µM).

As to `Cc1c(N2CC[C@@H]([C@H](C)N)C2)c(F)cc2cc(N)c(=O)n(C3CC3)c12` [Example 8, 3-amino-7-((R)-3-((S)-1-aminoethyl)pyrrolidin-1-yl)-1-cyclopropyl-6-fluoro-8-methylquinolin-2(1H)-one hydrochloride salt], the IC50 in assay [1] amounted to 1.68 µM.
